Measured values published in patent US20240327458A1, “MACROCYCLIC PEPTIDOMIMETIC PROTEASE INHIBITOR AND USE THEREOF” (TENCENT TECHNOLOGY (SHENZHEN) COMPANY LIMITED, priority 2022, published 2024).
Where two headings read alike, the source gives them in different places.

What was measured:
M^pro = M^pro (Severe acute respiratory syndrome coronavirus 2 (2019-nCoV) (SARS-CoV-2), UniProt P0DTD1); settings: read-out: M^pro IC50; GST-AVLQ-3Clpro-GP-6His; substrate MCA-AVLQSGFR-Lys(Dnp)-Lys-NH2; Ex320/Em405
Source text: An objective of this experiment is to detect the in vitro inhibitory activity against M^pro of the compound of the present disclosure.
Experimental steps and methods: • 1. Prepare a 1× buffer solution (modified Tris buffer solution). • 2. Transfer a to-be-tested compound to the assay plate with Echo's 100% DMSO solution to a final DMSO content of 0.5%. • 3. Prepare a mixed protein solution: Add GST-AVLQ-3Clpro-GP-6His in a 1× assay buffer solution to support the mixed protein solution. • 4. […] Add 10 μL of 2× mixed protein solution in the assay plate, centrifuge for 30s, shake for 30s, and incubate the solution at room temperature for 15 min. • 6. Add 10 μL of 2× mixed substrate solution in the assay plate, centrifuge for 30, and shake for 30s. • 7. Read the data dynamically on Synergy (Ex320/Em405).

[1] = rcm bond, Grubbs 2nd generation catalyst, dichloromethane, 25.0 °C

**Q.** For `CC1(C)[C@@H]2[C@H]3C(=O)N[C@H](C#N)CCC(=O)NCCCCCC[C@H](NC(=O)C(F)(F)F)C(=O)N3C[C@@H]21` [Compound 7, N-((3S, 14S, 17aS, 18aR, 18bS)-3-cyano-18,18-dimethyl-1,6,15-trioxyeicosanylhydrocyclopropyl[3,4]pyrrole[1,2-a][1,4,9]triazacycloheptanedioic acid-14-yl)-2,2,2-trifluoroacetamide], which IC50 (M^pro) is on record?
**A.** 0.016 µM

**Q.** For `COC(=O)[C@@H]1CCC(=O)NCCCC=CC[C@H](NC(=O)OC(C)(C)C)C(=O)N2C[C@H]3[C@@H]([C@H]2C(=O)N1)C3(C)C`, which ring closure, yield of all isomers ([1]; from C=CCCCNC(=O)CC[C@H](NC(=O)[C@@H]1[C@@H]2[C@H](CN1C(=O)[C@H](CC=C)NC(=O)OC(C)(C)C)C2(C)C)C(=O)OC, 3.53 mM, 16.0 h) is on record?
**A.** 100%

**Q.** Which IC50 (M^pro) does the source give for `CC1(C)[C@@H]2[C@H]3C(=O)N[C@H](C#N)CCC(=O)NCCCCCCCC[C@H](NC(=O)C(F)(F)F)C(=O)N3C[C@@H]21` [Compound 6, N-((3S, 16S, 19aS, 20aR, 20bS)-3-cyano-20,20-dimethyl-1,6,17-trioxydocosanylhydrocyclopropa[3,4]pyrrole[1,2-a][1,4,9]triazacyclononanedioic acid-16-yl)-2,2,2-trifluoroacetamide] here?
**A.** 0.379 µM

**Q.** With `CC1(C)[C@@H]2[C@H]3C(=O)N[C@H](C#N)CCC(=O)NCCC/C=C/CCC[C@H](NC(=O)C(F)(F)F)C(=O)N3C[C@@H]21` [Compound 8b, N-((3S, 16S, 19aS, 20aR, 20bS, Z/E)-3-cyano-20,20-dimethyl-1,6,17-trioxo-1,2,3,4,5,6,7,8,9,10,13,14,15,16,17,19,19a,20,20a,20b-eicosanylhydrocyclopropyl[3,4]pyrrole[1,2-a][1,4,9]triazacyclonon-16-yl)-2,2,2-trifluoroacetamide] as the compound, how does the IC50 (M^pro) read?
**A.** 0.138 µM

**Q.** With `CC1(C)[C@@H]2[C@H]3C(=O)N[C@H](C#N)CCC(=O)NCCCCCCC[C@H](NC(=O)C(F)(F)F)C(=O)N3C[C@@H]21` [Compound 1, N-((3S, 15S, 18aS, 19aR, 19bS)-3-cyano-19,19-dimethyl-1,6,16-trioxyeicosanylhydro-2H-cyclopropyl[3,4]pyrrole[1,2-a][1,4, 9]triazocyclooctadecyl-15-yl)-2,2,2-trifluoroacetamide] as the compound, how does the IC50 (M^pro) read?
**A.** 0.254 µM

**Q.** For `COC(=O)[C@@H]1CCC(=O)NCCCC=CCC[C@H](NC(=O)OC(C)(C)C)C(=O)N2C[C@H]3[C@@H]([C@H]2C(=O)N1)C3(C)C`, which ring closure, yield of all isomers ([1]; from C=CCCCNC(=O)CC[C@H](NC(=O)[C@@H]1[C@@H]2[C@H](CN1C(=O)[C@H](CCC=C)NC(=O)OC(C)(C)C)C2(C)C)C(=O)OC, 1.73 mM, 16.0 h) is on record?
**A.** 86%

**Q.** With `COC(=O)[C@@H]1CCC(=O)NCCC=Cc2cccc(c2)[C@H](NC(=O)OC(C)(C)C)C(=O)N2C[C@H]3[C@@H]([C@H]2C(=O)N1)C3(C)C` as the compound, how does the ring closure, yield of all isomers ([1]; from C=CCCNC(=O)CC[C@H](NC(=O)[C@@H]1[C@@H]2[C@H](CN1C(=O)[C@@H](NC(=O)OC(C)(C)C)c1cccc(C=C)c1)C2(C)C)C(=O)OC, 3.55 mM, 16.0 h) read?
**A.** 20%

**Q.** Which IC50 (M^pro) does the source give for `CC1(C)[C@@H]2[C@H]3C(=O)N[C@H](C#N)CCC(=O)NCCC/C=C\CC[C@H](NC(=O)C(F)(F)F)C(=O)N3C[C@@H]21` [Compound 4, N-((3S, 15S, 18aS, 19aR, 19bS, Z)-3-cyano-19,19-dimethyl-1,6,16-trioxo-1,3,4,5,6,7,8,9,10,13,14,15,16,18,18a,19,19a,19b-octadecahydro-2H-cyclopropane[3,4]pyrrole[1,2-a][1,4,9]triazacyclooctadecene-15-yl)-2,2,2-trifluoroacetamide] here?
**A.** 0.411 µM

**Q.** With `COC(=O)[C@@H]1CCC(=O)N(C)CCCC=CCC[C@H](NC(=O)OC(C)(C)C)C(=O)N2C[C@H]3[C@@H]([C@H]2C(=O)N1)C3(C)C` as the compound, how does the ring closure, yield of all isomers ([1]; from C=CCCCN(C)C(=O)CC[C@H](NC(=O)[C@@H]1[C@@H]2[C@H](CN1C(=O)[C@H](CCC=C)NC(=O)OC(C)(C)C)C2(C)C)C(=O)OC, 5.1 mM, 16.0 h) read?
**A.** 94%

**Q.** With `COC(=O)[C@@H]1CCC(=O)NCCCC=CCCC[C@H](NC(=O)OC(C)(C)C)C(=O)N2C[C@H]3[C@@H]([C@H]2C(=O)N1)C3(C)C` as the compound, how does the ring closure, yield of all isomers ([1]; from C=CCCCNC(=O)CC[C@H](NC(=O)[C@@H]1[C@@H]2[C@H](CN1C(=O)[C@H](CCCC=C)NC(=O)OC(C)(C)C)C2(C)C)C(=O)OC, 4.53 mM, 2.0 h) read?
**A.** 60%

**Q.** For `COC(=O)[C@@H]1CCC(=O)NCCCC=CC[C@H](NC(=O)OC(C)(C)C)C(=O)N2C[C@@H]3CCC[C@@H]3[C@H]2C(=O)N1`, which ring closure, yield of all isomers ([1]; from C=CCCCNC(=O)CC[C@H](NC(=O)[C@@H]1[C@H]2CCC[C@H]2CN1C(=O)[C@H](CC=C)NC(=O)OC(C)(C)C)C(=O)OC, 3.75 mM, 16.0 h) is on record?
**A.** 94%
